Measured values from patent US8598212B2, “Therapeutic agent and preventative agent for alzheimer's disease” (Toray Industries, Inc., priority 2010, dated 2013).
Counter-ions that a name gives are not always drawn.

Tests used:
[1] = system: Alzheimer's disease model rats; assay: Morris water maze test in Alzheimer's disease model rats (basal ganglia destroyed with ibotenic acid); format: in vivo, Wistar rats; conditions: 30 mg/kg oral once per day from Day 0 after destruction treatment, not given just before trials; Day 10 to Day 12; compared to vehicle-administered group
[2] = system: mouse partial sciatic nerve ligation model; assay: von Frey test in mouse partial sciatic nerve ligation model (Seltzer model); format: in vivo, ICR mice; conditions: for inhibition in vivo at 10 mg/kg / von Frey Total Score of 1 Hour after Oral Administration (Mean ± S.E.), Test Compound-Administered Group: dose 10 mg/kg oral; for von Frey Total Score of 1 Hour after Oral Administration (Mean ± S.E.), Test Compound-Administered Group: n = 5-6, 7 days after ligation
Description: As a reference example, the mouse partial sciatic nerve ligation model (Seltzer model), by which neuropathic pain can be evaluated, was used to evaluate the analgesic effect of Compound (I).
Mouse models of partial sciatic nerve ligation were prepared according to Seltzer's method (Malmberg et al., Pain, 1998, vol. 76, p. 215-222). Male ICR mice of 5 weeks old were anesthetized with Sodium pentobarbital (70 mg/kg, i.p.), and thereafter, the sciatic nerve at the femoral region of the right hind limb of each mouse was exposed, and the sciatic nerve was triply ligated tightly with silk suture of 8-0 (NATSUME SEISAKUSHO) under microscope so that only half thickness of the nerve was trapped in the ligature, which mice were used as a ligation group. The mice whose sciatic nerves were exposed but not ligated were used as a sham operation group.
Evaluation of neuropathic pain (hereinafter “von Frey test”) was carried out as follows. Mice were conditioned for at least 1 hour in an acryl cage for measurement (NATSUME SEISAKUSHO) placed on a wire net. Thereafter, using a filament (North Coast Medical, Inc. CA, USA) which exerted a pressure of 0.16 g, the mice were subjected to mechanical tactile stimulus by applying the filament to the plantar surface of both hindpaws 3 times, each for 3 seconds, with an interval of 3 seconds.
Seven days after the sciatic nerve ligation, test compounds were orally administered to the mice. Prior to the oral administration of the test compounds, the von Frey test was carried out to split the animals of the ligation group into vehicle groups and test compound-administered groups so that the sums of the total scores of the groups were equalized. The mice of the sham operation groups, the vehicle groups and the test compound-administered groups were subjected to the von Frey test 1 hour, 2 hours and 3 hours after oral administration of a vehicle or a test compound, and the obtained scores were used as an indicator of analgesic effect. As a vehicle of test compound solution or suspension, dimethyl sulfoxide (hereinafter “DMSO”):Tween80:distilled water (1:1:8), 27% hydroxypropyl-β-cyclodextrin (hereinafter “27% HP-β-CD”) or 0.5% MC was used.
For evaluation of drug efficacy, data were statistically processed by the unpaired multigroup t test (adjusted by Dunnett), taking the vehicle group of each measurement time as a control.

[3] = system: rats with medial septal lesions; conditions: 0.5 mg/kg; Ogura et al., 1998; cited from earlier work
[4] = system: rat neuropathic pain model; conditions: Clayton et al., Anesthesiology, 2007; cited from earlier work
[5] = system: rat diabetic neuropathic pain model; conditions: Chen et al., 2009; cited from earlier work
[6] = system: patients with complex regional pain syndrome; conditions: Sinia et al., Clin J Pain, 2007; cited from earlier work
[7] = Mus musculus, po, 1 h, relative to vehicle and sham operation groups, read-out: Score Improvement

In the case of `COc1ccc(-n2nc(C3(O)CCC(O)CC3)cc2-c2ccc(C)cc2)cc1` (single isomer, unassigned) [Compound 3, 1-(1-(4-methoxyphenyl)-5-(p-tolyl)-1H-pyrazol-3-yl)cyclohexan-cis-1,4-diol], the “Escape latency in Morris water maze” value [1] is reported as “statistically significantly shortened”.

Compound `COc1ccc(-c2cc(C3(O)CCC(O)CC3)nn2-c2ccc(OC)cc2)cc1` (stereo not drawn) [Compound 8, 1-(1,5-bis(4-methoxyphenyl)-1H-pyrazol-3-yl)cyclohexan-cis-1,4-diol] has an inhibition in vivo at 10 mg/kg [2, 7] of 70%.

With `COc1ccc(-n2nc(C3(O)CCC(O)(C(F)(F)F)CC3)cc2-c2ccc(C)cc2)cc1` (stereo not drawn) [Compound 10, 1-(1-(4-methoxyphenyl)-5-(p-tolyl)-1H-pyrazol-3-yl)-4-(trifluoromethyl)cyclohexan-cis-1,4-diol] the inhibition in vivo at 1 mg/kg ([2]; Mus musculus, po, 1 h, dose 1 mg/kg oral, relative to vehicle and sham operation groups, read-out: Score Improvement) was 78%.

For `COc1ccc(-n2nc(C3(O)CCC(O)CC3)cc2-c2ccc(C)nc2)cc1` (stereo not drawn) [Compound 15, 1-(1-(4-methoxyphenyl)-5-(6-methylpyridin-3-yl)-1H-pyrazol-3-yl)cyclohexan-cis-1,4-diol], the inhibition in vivo at 10 mg/kg [2, 7] was 84% and the “von Frey Total Score of 1 Hour after Oral Administration (Mean ± S.E.), Test Compound-Administered Group” value [2] was 1.0 ± 0.4.

With `COc1ccc(-c2nc(C3(O)CCC(O)CC3)oc2-c2ccc(OC)cc2)cc1` (stereo not drawn) [Compound 43, 4-(4,5-bis(4-methoxyphenyl)oxazol-2-yl)cyclohexan-cis-1,4-diol] the inhibition in vivo at 10 mg/kg [2, 7] was 100%.

With `CCc1ccc(-c2cc(C3(O)CCC(O)CC3)nn2-c2ccc(OC)cc2)cc1` (centres unmarked) [Compound 48] the inhibition in vivo at 10 mg/kg [2, 7] was 83% and the “von Frey Total Score of 1 Hour after Oral Administration (Mean ± S.E.), Test Compound-Administered Group” value [2] was 1.0 ± 0.5.

In the case of `COc1ccc(-n2nc(C3(O)CCC(O)CC3)cc2-c2ccc(C)cc2)cc1F` (centres unmarked) [Compound 54], the inhibition in vivo at 10 mg/kg [2, 7] is reported as 83%.

`COc1ccc(-n2nc(C3(O)CCC(O)CC3)cc2-c2ccc(C)c(F)c2)cc1` (centres unmarked) [Compound 55] gave an inhibition in vivo at 3 mg/kg ([2]; Mus musculus, po, 1 h, dose 3 mg/kg oral, relative to vehicle and sham operation groups, read-out: Score Improvement) of 93%.

In the case of `COc1cc2c(cc1OC)C(=O)C(CC1CCN(Cc3ccccc3)CC1)C2` (centres unmarked) [donepezil hydrochloric acid salt], the “effectiveness in the Morris water maze test” value [3] is given as “effective”.

For `COc1cc2c(cc1OC)C(=O)C(CC1CCN(Cc3ccccc3)CC1)C2` (centres unmarked) [donepezil], the analgesic effect [4] is given as “exhibits an analgesic effect”.

For `CC12CC3CC(C)(C1)CC(N)(C3)C2` [memantine], the analgesic effect [5] is given as “exhibits an analgesic effect” and the analgesic effect [6] is given as “exhibits an analgesic effect”.
